The values that follow come from ChEMBL document CHEMBL6134841, “3,5-Dihydroxybenzoic Acid as a Potent Inhibitor of Tyrosine Phenol-Lyase Decreases Fecal Phenol Levels in Mice” (J Med Chem, 2025).

Active and inactive are the calls of the source. The rule behind the calls is not given here.

Test [1] has as its system Morganella morganii. Nature of the test: Inhibition of TPL in Morganella morganii JCM1672 assessed as decrease in phenol production at 100 to 500 uM incubated for 3 hrs by absorbance based analysis relative to control. The conditions noted are these: dose 100-500 µM.
The subject of test [2] is Citrobacter koseri. Briefly: Inhibition of TPL in Citrobacter koseri JCM1658 assessed as decrease in phenol production incubated for 0.5 to 3 hrs by absorbance based analysis. Particulars: dose 100-500 µM, time 0.5-3 hrs.
Test [3] relates to Morganella morganii. Briefly: Inhibition of TPL in Morganella morganii JCM1672 assessed as decrease in phenol production at 100 uM incubated for 1 hr by absorbance based analysis.
Test [4] concerns Mus musculus. Briefly: In vivo inhibition of TPL in feces of C57BL/6J mouse administered orally measured after 14 days by immunoassay. In kind it is functional, organism-based. The conditions noted are these: route po, time 14.0 day.
In test [5] the test system is Mus musculus. Nature of the test: Effect on fecal phenol level in C57BL/6J mouse administered orally measured after 7 days by LC-MS analysis. In kind it is functional, organism-based. Particulars: route po, time 7.0 day.
For test [6], the system named is Morganella morganii. Nature of the test: Effect on TPL expression in Morganella morganii JCM1672 up to 500 uM by immunoblot analysis. In kind it is functional. A general note: Immunoblotting shows a protein as a band on a membrane.
The nature of test [7]: Competitive inhibition of bacterial TPL assessed as decrease in phenol production incubated for 3 mins in presence of PLP/L-Tyr by LC-MS analysis. Set-up: species or system Bacteria.
Test [8] concerns Morganella morganii. Nature of the test: Inhibition of cell growth in Morganella morganii JCM1672 up to 500 uM incubated up to 24 hrs. It counts as functional, organism-based.
Test [9] concerns Citrobacter koseri. Briefly: Effect on TPL expression in Citrobacter koseri JCM1658 up to 500 uM by immunoblot analysis. In kind it is functional.
For test [10], the system named is Citrobacter koseri. Nature of the test: Inhibition of TPL in Citrobacter koseri JCM1658 assessed as decrease in phenol production at 100 to 500 uM incubated for 3 hrs by absorbance based analysis relative to control. Particulars: dose 100-500 µM.
Test [11] relates to Morganella morganii. Briefly: Inhibition of TPL in Morganella morganii JCM1672 assessed as decrease in phenol production at 500 uM incubated for 0.5 to 3 hrs by absorbance based analysis. The conditions noted are these: time 0.5-3 hrs.
The subject of test [12] is Mus musculus. Briefly: In vivo inhibition of TPL in C57BL/6J mouse assessed as reduction in L-Tyr-induced fecal phenol level administered orally measured after 14 days by LC-MS analysis. Particulars: route po, time 14.0 day. It counts as functional, organism-based.
Test [13] has as its system Morganella morganii. Briefly: Inhibition of recombinant Morganella morganii JCM1672 TPL extracted from Escherichia coli BL21(DE3) assessed as decrease in phenol production incubated for 3 mins in presence of PLP/L-Tyr by LC-MS analysis.
Test [14] has as its system Citrobacter koseri. Nature of the test: Inhibition of cell growth in Citrobacter koseri JCM1658 up to 500 uM incubated up to 24 hrs. It counts as functional, organism-based.
The test system of test [15] is Citrobacter koseri. Briefly: Inhibition of recombinant Citrobacter koseri JCM1658 TPL extracted from Escherichia coli BL21(DE3) assessed as decrease in phenol production incubated for 3 mins in presence of PLP/L-Tyr by LC-MS analysis.

Turning to `O=C(O)c1cc(O)cc(O)c1` [3,5-DIHYDROXYBENZOIC ACID], the values for the Imax with Morganella morganii [1] and in the test on Citrobacter koseri [10] were 29.3% and 56.2%, respectively. Besides, the figures for the inhibition entry in the test on Citrobacter koseri [2] and with Mus musculus [4] were “Dose-dependent-effect” and “Active; Tpl Expression Was Below The Detection Limit”, respectively. Further, the inhibition result with Morganella morganii [3], in the test with Morganella morganii [11], in the test with Mus musculus [12] and in the test with Morganella morganii [13] was “Active” throughout. The Activity entry in the test with Mus musculus [5], with Morganella morganii [6] and with Citrobacter koseri [9] was “No effect” each time. Also, in [7], the Ki turned out to be 25.7 µM. In addition, the inhibition result in the test on Morganella morganii [8] and with Citrobacter koseri [14] was “inactive” each time.
Consider `O=C(O)c1cccc(O)c1` [3-HYDROXYBENZOIC ACID], for which the Ki in test [7] was 35.8 µM. Further, the inhibition entry in the test on Morganella morganii [13] is “Active”.
For `Oc1cccc(O)c1O`, in the test with Morganella morganii [13], the inhibition result was “inactive”.
On the same count and under the same terms, the value for `O=C(O)c1ccccc1` was “inactive”.
As for `O=C(O)c1cc(O)c(O)c(O)c1` [GALLIC ACID], the inhibition entry in the test on Citrobacter koseri [15] and in the test on Morganella morganii [13] was “Active” throughout. In addition, in test [7], the inhibitory constant (Ki) was found to be 73.2 µM.
Regarding `COc1ccc(C(=O)O)cc1O` [ISOVANILLIC ACID], the inhibitory constant (Ki) in test [7] turned out to be 44.7 µM. Further, the inhibition result with Morganella morganii [13] was “Active”.
As for `O=C(O[C@@H]1Cc2c(O)cc(O)cc2O[C@@H]1c1ccc(O)c(O)c1)c1cc(O)c(O)c(O)c1`, the inhibition result in the test on Citrobacter koseri [15] and in the test on Morganella morganii [13] was “Active” each time.
With `O=C(O)c1ccc(O)c(O)c1` [PROTOCATECHUIC ACID], the Ki in test [7] turned out to be 45.5 µM. In addition, in the test with Morganella morganii [13], the inhibition result is “Active”.
Turning to `O=C(O[C@@H]1Cc2c(O)cc(O)cc2O[C@@H]1c1cc(O)c(O)c(O)c1)c1cc(O)c(O)c(O)c1`, the inhibition entry with Citrobacter koseri [15] and in the test with Morganella morganii [13] was “Active” in each case.
Regarding `Oc1ccccc1O`, in the test on Morganella morganii [13], the inhibition entry is “inactive”.
On the same count and under the same terms, the value for `O=C(O)c1cncc(O)c1` was “Active”; that for `COc1ccc(C(=O)O)cc1OC` was “inactive”.
Same read-out and setting: with `O=C(O)c1ccc(O)nc1` the entry was “inactive”; with `COc1cc(C(=O)O)ccc1O`, “inactive”.
Same read-out and setting: with `Oc1cccc(O)c1` the entry was “inactive”; with `O=C(O)c1cccnc1`, “inactive”.
As to `O=C(O)c1ccc(O)cc1`, in the test with Morganella morganii [13], the inhibition result was “inactive”.
Same read-out and setting: the value for `O=C(O)Cc1ccc(O)c(O)c1` was “inactive”.
Take `N[C@@H](Cc1ccc(O)cn1)C(=O)O`: in [7], the Ki was determined as 130 µM.

A word on the Ki: it is the equilibrium dissociation constant of an inhibitor or competing ligand from its target.
